Assay type in all cases: cell-based
For one assay, the target named is vanilloid receptor (VR1) (Homo sapiens (Human), UniProt Q8NER1). The assay is described as follows: FLIPR Ca2+ influx assay on CHO-K1 cells transfected with the human VR1 gene, capsaicin stimulus (Pharmacological Method II). On the procedure:
Furthermore, preference may be given to compounds of the invention of the general formulas I, Ia, Ib and Ic, which in the FLIPR assay using CHO—K1 cells, which have been transfected with the human VR1 gene in a concentration below 2000 nM, preferably below 1000 nM, more preferably below 300 nM, even more preferably below 100 nM, still more preferably below 75 nM, very preferably below 50 nM and most preferably below 10 nM, cause a 50 percent displacement of capsaicin present in a concentration of 100 nM. In the FLIPR assay, the Ca^2+ influx is quantified with the aid of a Ca^2+-sensitive dye (type Fluo-4, Molecular Probes Europe BV, Leiden, Netherlands) in a fluorescent imaging plate reader (FLIPR, Molecular Devices, Sunnyvale, USA), as described below.
II. Functional Investigations on the Vanilloid Receptor (VR1)
The agonistic or antagonistic action of the substances to be examined on the vanilloid receptor (VR1) can alternatively be determined by the following assay. According to this assay the Ca^2+ influx through the canal is quantified with the aid of a Ca^2+-sensitive dye (type Fluo-4, Molecular Probes, Europe BV, Leiden, Netherlands) in a fluorescent imaging plate reader (FLIPR, Molecular Devices, Sunnyvale, USA).
Chinese hamster ovary cells (CHO—K1 cells, European Collection of Cell Cultures (ECACC) UK) are stably transfected with the VR1 gene. For carrying out functional investigations, these cells are plated on poly-D-lysine-coated, black 96-well plates with a clear bottom (BD Biosciences, Heidelberg, Germany) in a density of 25,000 cells/well. The cells are incubated overnight at 37° C. and 5% CO2 in a culture medium (Nutrient Mixture ‘am’s F12, 10% by volume of FCS (fetal calf serum), 18 μg/mL of L-proline). On the following day the cells are incubated with Fluo-4 (Fluo-4 2 μM, Pluronic F127 0.01 by volume, Molecular Probes in HBSS (Hank's buffered saline solution), Gibco Invitrogen GmbH, Karlsruhe, Germany) for 30 minutes at 37° C. The plates are then washed 3 times with HBSS buffer and, after another incubation over a period of 15 minutes at RT, are used in the FLIPR for Ca^2+ measurement. The Ca^2+-dependent fluorescence is measured prior to and following the addition of the substances being examined (wavelength λex=488 nm, λem=540 nm). Quantification is carried out by measuring the highest fluorescence intensity (PC, fluorescence counts) over time.
The FLIPR protocol consists of two substance additions. First of all, the substances to be tested (10 μM) are pipeted onto the cells and the Ca^2+ influx is compared with the control (capsaicin 10 μM) (percentage activation based on the Ca^2+ signal following addition of 10 μM of capsaicin). Following incubation over a period of 5 minutes 100 nM of capsaicin are applied and the influx of Ca^2+ is likewise determined.
Desensitizing agonists and antagonists lead to a suppression of the Ca^2+ influx. The percentage inhibition compared with the maximum inhibition achieved with 10 μM of capsaicin is calculated.
Based on the percentage displacement effected by different concentrations of the compounds of the general formula Ito be tested, IC50 inhibition concentrations that cause 50 percent displacement of capsaicin are calculated. Conversion using the Cheng Prusoff equation gave Ki values for the test substances (Cheng, Prusoff; Bioch. Pharmacol. 22, 3099-3108, 1973).
The affinity of the compounds of the invention for the vanilloid receptor 1 (VR1/TRPV1-Receptor) was detected as described above (Pharmacological Methods I and II respectively).

Assay [1] addresses vanilloid receptor 1 (VR1/TRPV1) (Rattus norvegicus (Rat), UniProt O35433). As to the kind of experiment: FLIPR Ca2+ influx assay on rat dorsal root ganglia cells, capsaicin stimulus (Pharmacological Method I). An excerpt:
I. Functional Investigation on the Vanilloid Receptor 1 (VR1/TRPV1 Receptor)
The agonistic or antagonistic action of the substances to be investigated on the vanilloid receptor 1 (VR1/TRPV1) of the species rat can be determined using the following assay. According to this assay, the Ca^2+ influx through the receptor channel is quantified with the aid of a Ca^2+-sensitive dye (Type Fluo-4, Molecular Probes Europe BV, Leiden Netherlands) in a fluorescent imaging plate reader (FLIPR, Molecular Devices, Sunnyvale, USA).
Complete medium: 50 mL of HAMS F12 Nutrient Mixture (Gibco Invitrogen GmbH, Karlsruhe, Germany) with
10% by volume of FCS (fetal calf serum, Gibco Invitrogen GmbH, Karlsruhe, Germany, heat-inactivated);
2 mM of L-glutamine (Sigma, Munich, Germany);
1% by weight of AA solution (antibiotics/antimycotics solution, PAA, Pasching, Austria)
and 25 ng/mL of Medium NGF (2.5 S, Gibco Invitrogen GmbH, Karlsruhe, Germany) Cell culture plate: Poly-D-lysine-coated, black 96-well plates with a clear bottom (96-well black/clear plate, BD Biosciences, Heidelberg, Germany) are additionally coated with laminin (Gibco Invitrogen GmbH, Karlsruhe, Germany) by diluting laminin to a concentration of 100 μg/mL with PBS (Ca—Mg-free PBS, Gibco Invitrogen GmbH, Karlsruhe, Germany). Aliquots having a concentration of 100 μg/mL of laminin are taken and stored at −20° C. The aliquots are diluted with PBS in the ratio 1:10 to 10 μg/mL of laminin and in each case 50 μL of the solution is pipeted into a well of the cell culture plate. The cell culture plates are incubated at 37° C. for at least two hours, the supernatant solution is aspirated and the wells are in each case washed twice with PBS. The coated cell culture plates are stored with supernatant PBS and this is removed only directly before the addition of the cells.
Preparation of the Cells:
The vertebral column is removed from decapitated rats and this is laid directly in a cold, i.e. ice bath-surrounded, HBSS buffer (Hank's buffered saline solution, Gibco Invitrogen GmbH, Karlsruhe, Germany) and 1% by volume of an AA solution (antibiotics/antimycotics solution, PAA, Pasching, Austria) is added. The vertebral column is cut in two, longitudinally, and the vertebral canal is removed together with fascias. Subsequently, the dorsal root ganglia (DRGs) are removed and in turn stored in cold HBSS buffer to which 1% by volume of an AA solution has been added. The DRGs completely freed from blood residues and spinal nerves are in each case transferred to 500 μL of cold collagenase Type 2 (PAA, Pasching, Austria) and incubated at 37° C. for 35 minutes. After the addition of 2.5% by volume of trypsin (PAA, Pasching, Austria), the preparation is incubated at 37° C. for a further 10 minutes. On completion of incubation, the enzyme solution is carefully pipeted off and 500 μL of complete medium are added to the DRGs in each case. The DRGs are in each case repeatedly suspended, drawn through No. 1, No. 12, and No. 16 needles by means of a syringe and transferred to 50 mL Falcon tubes and these are filled to 15 mL with complete medium. The contents of each Falcon tube are in each case filtered through a 70 μm Falcon filter insert and centrifuged at 1200 rpm and RT for 10 minutes. The resulting pellet is in each case taken up in 250 μL of complete medium and the cell count is determined.
The number of cells in the suspension is adjusted to 3×10^5 per mL and in each case 150 μL of this suspension are added to a well of the cell culture plates coated as described above. The plates are allowed to stand at 37° C., 5% by volume of CO2 and 95% relative humidity for two to three days in an incubator. […]

Another assay deals with VR1/TRPV1 receptor (Homo sapiens (Human), UniProt Q8NER1). The assay is described as follows: Inhibition of human VR1/TRPV1 following pH-stimulus. As to conditions: for IC50 (Human) following pH-stimulus / IC50: ne = no effect, no reaction observed; for inhibition at 1 µM / inhibition at 5 µM / inhibition at 10 µM: read-out: inhibition (in percent) following pH-stimulus (Human).

These results are taken from US8791268B2, “Vanilloid receptor ligands, pharmaceutical compositions containing them, process for making them, and use thereof for treating pain and other conditions” (Gruenenthal GmbH, priority 2007, dated 2014).

vanilloid receptor 1 (VR1/TRPV1), sequence (O35433 whole entry): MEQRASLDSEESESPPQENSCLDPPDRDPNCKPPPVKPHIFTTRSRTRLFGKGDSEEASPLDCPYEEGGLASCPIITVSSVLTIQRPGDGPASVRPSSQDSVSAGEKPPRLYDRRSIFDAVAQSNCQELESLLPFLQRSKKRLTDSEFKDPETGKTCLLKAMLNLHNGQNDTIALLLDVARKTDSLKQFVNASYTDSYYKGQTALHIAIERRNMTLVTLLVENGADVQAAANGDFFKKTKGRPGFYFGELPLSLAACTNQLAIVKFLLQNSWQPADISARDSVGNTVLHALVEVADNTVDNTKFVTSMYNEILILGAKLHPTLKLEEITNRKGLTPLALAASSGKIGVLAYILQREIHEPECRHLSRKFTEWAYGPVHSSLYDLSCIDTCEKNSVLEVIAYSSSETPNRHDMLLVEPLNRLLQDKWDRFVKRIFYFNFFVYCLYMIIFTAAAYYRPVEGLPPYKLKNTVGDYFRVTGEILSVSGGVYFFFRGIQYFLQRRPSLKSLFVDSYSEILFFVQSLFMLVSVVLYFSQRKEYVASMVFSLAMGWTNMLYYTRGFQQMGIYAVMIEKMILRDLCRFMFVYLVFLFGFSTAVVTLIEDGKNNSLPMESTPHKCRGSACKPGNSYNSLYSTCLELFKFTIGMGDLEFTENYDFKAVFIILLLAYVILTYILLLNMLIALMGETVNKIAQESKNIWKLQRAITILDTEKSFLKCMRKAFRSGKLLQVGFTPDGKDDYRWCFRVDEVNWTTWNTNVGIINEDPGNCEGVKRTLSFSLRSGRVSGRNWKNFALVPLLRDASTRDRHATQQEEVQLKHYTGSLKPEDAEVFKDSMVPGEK
VR1/TRPV1 receptor, sequence (Q8NER1 whole entry): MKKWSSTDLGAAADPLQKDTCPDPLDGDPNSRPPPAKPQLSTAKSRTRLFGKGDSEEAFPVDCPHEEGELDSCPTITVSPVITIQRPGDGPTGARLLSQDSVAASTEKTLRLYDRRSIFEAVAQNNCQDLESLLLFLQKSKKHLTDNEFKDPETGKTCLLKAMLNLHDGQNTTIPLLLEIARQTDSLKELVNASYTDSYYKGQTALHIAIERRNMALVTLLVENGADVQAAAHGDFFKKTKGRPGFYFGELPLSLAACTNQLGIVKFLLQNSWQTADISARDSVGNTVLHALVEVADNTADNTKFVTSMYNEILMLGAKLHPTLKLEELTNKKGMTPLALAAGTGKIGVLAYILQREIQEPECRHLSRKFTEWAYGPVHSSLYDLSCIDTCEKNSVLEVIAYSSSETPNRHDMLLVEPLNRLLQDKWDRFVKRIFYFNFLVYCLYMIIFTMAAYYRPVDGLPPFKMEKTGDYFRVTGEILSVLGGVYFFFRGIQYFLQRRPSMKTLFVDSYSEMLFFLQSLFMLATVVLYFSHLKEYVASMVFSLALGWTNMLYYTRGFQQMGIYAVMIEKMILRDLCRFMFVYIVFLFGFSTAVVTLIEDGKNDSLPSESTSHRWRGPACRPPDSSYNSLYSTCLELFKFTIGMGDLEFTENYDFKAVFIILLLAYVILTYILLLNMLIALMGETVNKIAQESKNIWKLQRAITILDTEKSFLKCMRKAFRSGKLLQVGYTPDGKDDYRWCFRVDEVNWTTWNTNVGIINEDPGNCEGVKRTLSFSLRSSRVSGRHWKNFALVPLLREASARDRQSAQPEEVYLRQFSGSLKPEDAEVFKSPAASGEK
vanilloid receptor (VR1), sequence (Q8NER1 whole entry): as above

As for `CC1CCN(c2nc(C(F)(F)F)ccc2CNC(=O)Cc2cc(Br)cc(Br)c2)CC1` [Example 2, 2-(3,5-Dibromophenyl)-N-((2-(4-methylpiperidin-1-yl)-6-(trifluoromethyl)pyridin-3-yl)methyl)acetamide], the inhibitory constant (Ki) (commonly the dissociation constant of the complex between target and ligand, obtained from inhibition or displacement) at vanilloid receptor (VR1) was 0.0406 µM; in assay [1], 0.0601 µM. For the same compound, the “IC50 (Human) following pH-stimulus” value against VR1/TRPV1 receptor is “ne”.

Turning to `COc1cc(CC(=O)NCc2ccc(C(F)(F)F)nc2N2CCC(C)CC2)cc(Br)c1N` [Example 3, 2-(4-Amino-3-bromo-5-methoxyphenyl)-N-(4-methyl-6′-trifluoromethyl-3,4,5,6-tetrahydro-2H-[1,2′]bipyridinyl-3′-ylmethyl)acetamide], the inhibition constant (Ki) on vanilloid receptor (VR1) is 0.0044 µM; in assay [1], 0.0167 µM. Also, at VR1/TRPV1 receptor, the half-inhibitory concentration (IC50) (as a rule, the midpoint of a concentration-inhibition curve) was 0.253 µM.

On to `CC1CCN(c2nc(C(F)(F)F)ccc2CNC(=O)Cc2cccc(F)c2)CC1` [Example 4, 2-(3-Fluorophenyl)-N-(4-methyl-6′-trifluoromethyl-3,4,5,6-tetrahydro-2H-[1,2′]bipyridinyl-3′-ylmethyl)acetamide], for which the inhibition constant (Ki) at vanilloid receptor (VR1) came out at 0.034 µM; in assay [1], 0.08 µM. The “IC50 (Human) following pH-stimulus” value on VR1/TRPV1 receptor is reported as “ne”.

As for `CC1CCN(c2nc(C(F)(F)F)ccc2CNC(=O)Cc2c(F)cccc2F)CC1` [Example 6, 2-(2,6-Difluorophenyl)-N-(4-methyl-6′-trifluoromethyl-3,4,5,6-tetrahydro-2H-[1,2′]bipyridinyl-3′-ylmethyl)acetamide], the inhibition constant Ki at vanilloid receptor (VR1) amounted to 0.038 µM; in assay [1], 0.118 µM. Also, the “IC50 (Human) following pH-stimulus” value on VR1/TRPV1 receptor is recorded as “ne”.

The compound `CC1CCN(c2nc(C(F)(F)F)ccc2CNC(=O)C(C)c2cc(F)cc(F)c2)CC1` (stereo not shown) [Example 10, 2-(3,5-Difluorophenyl)-N-(4-methyl-6′-trifluoromethyl-3,4,5,6-tetrahydro-2H-[1,2′]bipyridinyl-3′-ylmethyl)propionamide] showed an inhibition constant (Ki) at vanilloid receptor (VR1) of 0.0247 µM. Moreover, the “IC50 (Human) following pH-stimulus” value at VR1/TRPV1 receptor was “ne”.

On to `CC(=O)Nc1ccc(C(C)C(=O)NCc2ccc(C(F)(F)F)nc2N2CCC(C)CC2)cc1F` (stereo not shown) [Example 18, 2-(4-Acetamido-3-fluorophenyl)-N-((2-(4-methylpiperidin-1-yl)-6-(trifluoromethyl)pyridin-3-yl)methyl)propanamide], for which the affinity on vanilloid receptor (VR1) corresponds to a Ki of 0.025 µM. Also, the “IC50 (Human) following pH-stimulus” value on VR1/TRPV1 receptor is listed as “ne”.

With `CC1CCN(c2nc(C(F)(F)F)ccc2CNC(=O)C(C)c2cc(Br)c(O)c(Br)c2)CC1` (stereo not shown) [Example 19, 2-(3,5-Dibromo-4-hydroxyphenyl)-N-(4-methyl-6′-trifluoromethyl-3,4,5,6-tetra-hydro-2H-[1,2′]bipyridinyl-3′-ylmethyl)propionamide], the affinity on vanilloid receptor (VR1), expressed as Ki, was 0.0011 µM. Besides, at VR1/TRPV1 receptor, the inhibition (commonly how much of the control response was suppressed) at 1 µM came out at 0%, the inhibition at 5 µM was found to be 20% and the inhibition at 10 µM was found to be 31%.

As for `CC1CCN(c2nc(C(F)(F)F)ccc2CNC(=O)C(C)c2cc(Br)c(N)c(Br)c2)CC1` (stereo not shown) [Example 20, 2-(4-Amino-3,5-dibromophenyl)-N-(4-methyl-6′-trifluoromethyl-3,4,5,6-tetra-hydro-2H-[1,2′]bipyridinyl-3′-ylmethyl)propionamide], the affinity at vanilloid receptor (VR1) corresponds to a Ki of 0.0009 µM. Further, at VR1/TRPV1 receptor, the inhibition at 1 µM was 0%, the inhibition at 5 µM was 10% and the inhibition at 10 µM is 27%.

On vanilloid receptor (VR1), `COc1cc(CC(=O)NCc2ccc(C(F)(F)F)nc2N2CCC(C)CC2)cc(Br)c1O` [Example 21, 2-(3-Bromo-4-hydroxy-5-methoxyphenyl)-N-(4-methyl-6′-trifluoromethyl-3,4,5,6-tetrahydro-2H-[1,2′]bipyridinyl-3′-ylmethyl)acetamide] displayed a Ki of 0.0001 µM. For the same compound, on VR1/TRPV1 receptor, the inhibition at 5 µM was found to be 4% and the inhibition at 10 µM is 38%.

For the compound `CC1CCN(c2nc(C(F)(F)F)ccc2CNC(=O)Cc2cc(Br)c(N)c(Br)c2)CC1` [Example 22, 2-(4-Amino-3,5-dibromophenyl)-N-(4-methyl-6′-trifluoromethyl-3,4,5,6-tetra-hydro-2H-[1,2′]bipyridinyl-3′-ylmethyl)acetamide], the inhibitory constant (Ki) on vanilloid receptor (VR1) was 0.0007 µM. Besides, at VR1/TRPV1 receptor, the IC50 was found to be 0.158 µM.

For the compound `CC1CCN(c2nc(C(F)(F)F)ccc2CNC(=O)Cc2cc(Br)c(O)c(Br)c2)CC1` [Example 23, 2-(3,5-Dibromo-4-hydroxyphenyl)-N-(4-methyl-6′-trifluoromethyl-3,4,5,6-tetra-hydro-2H-[1,2′]bipyridinyl-3′-ylmethyl)acetamide], the inhibition constant Ki on vanilloid receptor (VR1) is 0.0003 µM. At VR1/TRPV1 receptor, the inhibition at 5 µM is 8% and the inhibition at 10 µM was found to be 35%.

`C=CC(=O)Nc1c(F)cc(C(C)C(=O)NCc2ccc(C(F)(F)F)nc2N2CCC(C)CC2)cc1I` (stereo not shown) [Example 34, N-(2-Fluoro-6-iodo-4-(1-((2-(4-methylpiperidin-1-yl)-6-(trifluoromethyl)pyridin-3-yl)methylamino)-1-oxopropan-2-yl)phenyl)acrylamide]: the inhibitory constant (Ki) on vanilloid receptor (VR1) stood at 0.0048 µM. In addition, the “IC50 (Human) following pH-stimulus” value against VR1/TRPV1 receptor is reported as “ne”.
